system: Rattus norvegicus; assay: Antidiabetic activity in Sprague-Dawley rat assessed as induction of urinary glucose excretion per 200 gram of body weight at 1 mg/kg, po; assay type: functional, Urine

| Compound | Activity |
| --- | --- |
| CCOc1ccc(Cc2cc3c(cc2Cl)OCCCCCOC[C@H]2O[C@@H]3[C@H](O)[C@@H](O)[C@@H]2O)cc1 | 226 mg |
| CCc1ccc(Cc2cc3c(cc2Cl)OCCCCCOC[C@H]2O[C@@H]3[C@H](O)[C@@H](O)[C@@H]2O)cc1 | 116 mg |
| CCOc1ccc(Cc2cc([C@@H]3O[C@H](CO)[C@@H](O)[C@H](O)[C@H]3O)ccc2Cl)cc1 [DAPAGLIFLOZIN] | 1648 mg |

target: T1, Sodium/glucose cotransporter 2 (Homo sapiens, UniProt P31639); assay: Inhibition of human SGLT2 expressed in CHO cells assessed as reduction of [14C]-labeled AMG after 2 hrs by liquid scintillation counting; assay type: cell-based
T1 sequence (P31639 whole entry): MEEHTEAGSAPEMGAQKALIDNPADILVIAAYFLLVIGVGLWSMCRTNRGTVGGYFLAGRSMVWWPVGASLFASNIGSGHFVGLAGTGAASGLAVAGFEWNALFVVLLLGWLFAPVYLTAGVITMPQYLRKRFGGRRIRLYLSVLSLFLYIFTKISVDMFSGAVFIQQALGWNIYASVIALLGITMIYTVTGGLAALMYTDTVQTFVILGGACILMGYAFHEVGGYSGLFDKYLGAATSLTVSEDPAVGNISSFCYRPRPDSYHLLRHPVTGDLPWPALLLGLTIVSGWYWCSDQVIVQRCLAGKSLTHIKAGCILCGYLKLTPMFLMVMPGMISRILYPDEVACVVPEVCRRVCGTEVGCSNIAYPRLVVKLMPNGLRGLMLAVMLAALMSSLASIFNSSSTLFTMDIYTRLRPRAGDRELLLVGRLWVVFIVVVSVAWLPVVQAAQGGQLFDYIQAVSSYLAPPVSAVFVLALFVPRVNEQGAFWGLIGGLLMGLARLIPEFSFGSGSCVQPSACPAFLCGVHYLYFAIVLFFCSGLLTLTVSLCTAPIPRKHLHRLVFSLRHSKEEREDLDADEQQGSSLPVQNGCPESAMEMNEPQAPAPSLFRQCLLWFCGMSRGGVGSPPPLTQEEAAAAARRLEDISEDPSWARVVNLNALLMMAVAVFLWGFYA

| IC50 | Compound |
| --- | --- |
| 1.34 nM | CCOc1ccc(Cc2cc3c(cc2Cl)OCCOC[C@H]2O[C@@H]3[C@H](O)[C@@H](O)[C@@H]2O)cc1 |
| 2.95 nM | CCOc1ccc(Cc2cc3c(cc2Cl)OCCCOC[C@H]2O[C@@H]3[C@H](O)[C@@H](O)[C@@H]2O)cc1 |
| 1.59 nM | CCc1ccc(Cc2cc3c(cc2Cl)OCCCOC[C@H]2O[C@@H]3[C@H](O)[C@@H](O)[C@@H]2O)cc1 |
